# Peptide text beside a SMILES is read from it. * marks the point of attachment. Cbz = O=C(OCc1ccccc1)*
# How the values were obtained:
# sept4/ARTS KO MEFs = assay: Western blot of Sept4/ARTS KO MEFs treated with proteasome inhibitor; format: cell-based, mouse; details: MG-132, 20 μM for 6 hours
# Protocol: (§1) Cells were lysed in whole-cell extract buffer [25 mM HEPES, pH 7.7, […], 1.5 mM MgCl2, 0.2 mM EDTA, 0.1% Triton X-100, 100 μg/ml phenylmethylsulfonyl fluoride (PMSF) and protease inhibitor cocktail (Roche, 1:100 dilution)] and placed on ice for 30 min (vortexing once after 15 min). After 30 minutes, the samples were centrifuged at 13,000×g for 10 minutes at 4° C. The supernatants containing total protein were measured for protein concentration using Bio-Rad Protein Assay Dye Reagent Concentrate Kit. 40 to […] was separated by sodium dodecyl sulfate-polyacrylamide gel electrophoresis (SDS-PAGE) (12% or 7.5%), followed by transfer to a nitrocellulose membrane. The membranes were blocked with 5% (w/v) non-fat dried skimmed milk powder in PBS supplemented with 0.05% Tween-20 (PBS-T) for 1 h at RT. Next, primary antibodies were added at 4° C. overnight or for 2 h at room temperature. Membranes were then incubated with secondary antibody for 1 h at RT and washed three times for 15 min each with PBS-T. Western Bright ECL (Advansta) was added to the membrane for 30-60 s and analyzed using Image Quant LAS-4000 (GE Healthcare Life Sciences) and Image Quant LAS-4000 software (GE Healthcare Life Sciences).
# [1] = tested on: WT MEFs and Sept4/ARTS KO MEFs cells; assay: Western blot of WT MEFs and Sept4/ARTS KO MEFs; format: cell-based, mouse; details: 20 or 40 μM, 24 hours
# Protocol: as §1
# p53-ARTS complex = assay: BiFC assay in WT MEFs (VN-p53 and VC-ARTS); format: cell-based; details: 200 μM Etoposide
# From the text: The split-Venus BiFC system was used to evaluate close proximity indicating possible direct binding between pairs of proteins. The proteins were fused either to the N-terminal part of the VenusYFP (yellow fluorescence protein) (VN) or the C-terminal domain (VC). All Venus fragments were fused to the C-terminal sequences of these proteins. The Jun and bFos pair was used as a positive control (p.c.), and the Jun and bFosdeltaZTP pair was used as a negative control (n.c.). A vector encoding dsRed was used as a transfection efficiency marker.
# [2] = tested on: Sept4/ARTS KO MEFs, shARTS HeLa, A-375, WT MEFs, WT HeLa; assay: Western blot of cell lines with different amounts of endogenous ARTS; format: cell-based; details: ABT-199 alone, 24 hrs
# Protocol: (§2) The cells were lysed in WCE (whole-cell extract) buffer [25 mM Hepes, pH 7.7, 0.3M NaCl, 1.5 mM MgCl2, 0.2 mM EDTA, 0.1% Triton X-100, 100[μg/ml PMSF and protease inhibitor cocktail (Roche, 1:100 dilution)]. 100 μg of total cell protein, measured with the Bio-Rad Protein Assay kit, were separated by SDS-PAGE (12%) followed by transfer for 2 h on to a nitrocellulose membrane. The membrane was blocked with 5% (w/v) non-fat dried skimmed milk powder in PBS supplemented with 0.05% Tween20 (PBS-T) for 1 hour at room temperature (R.T). Membrane was then probed with primary antibody at 4° C. overnight. Next, the membrane was incubated with the appropriate HRP-conjugated secondary antibody, for 1 hour at R.T. and washed 15 min ×3 with PBS-T. WesternBright ECL (Advansta) was added to the membrane for 2 min and analyzed using ImageQuant LAS-4000 analyzer (GE Healthcare Life Sciences) & “ImageQuant LAS-4000” software (GE Healthcare Life Sciences). Densitometry analysis was performed using ImageQuant total lab 7 (GE Healthcare Life Sciences), image analysis software.
# [3] = tested on: A375 human melanoma cells; assay: SDS PAGE and Western blot analysis of A375 cells; format: cell-based
# Protocol: as §2, §1
# HL-60 leukemia cell line = assay: Western blot analysis of HL-60; format: cell-based; details: 1 μM ABT199, 24 hrs
# Protocol: as §2
# [4] = tested on: CCRF-CEM (acute lymphoblastic leukemia) cell line; assay: Western blot analysis of CCRF-CEM; format: cell-based; parameters: cleaved PARP and cleaved Caspase 3: dose or concentration left out as unconfirmed
# Protocol: as §2
smiles,measurement,setting,value
CC(C)C[C@@H](C=O)NC(=O)[C@H](CC(C)C)NC(=O)[C@H](CC(C)C)NC(=O)OCc1ccccc1 [MG-132] (Cbz-Leu-Leu-Leu-aldehyde),p53 protein levels,sept4/ARTS KO MEFs,accumulation
"COC(=O)c1[nH]c2ccc(Cl)cc2c1NC(=O)CN1CCN(Cc2ccccc2)CC1 [A4, 3-[2-(4-Benzyl-piperazin-1-yl)-acetylamino]-5-chloro-1H-indole-2-carboxylic acid methyl ester]",XIAP levels,[1],downregulates
same,p53 levels,[1],upregulate
COc1cc([C@@H]2c3cc4c(cc3[C@@H](O[C@@H]3O[C@@H]5CO[C@@H](C)O[C@H]5[C@H](O)[C@H]3O)[C@H]3COC(=O)[C@H]23)OCO4)cc(OC)c1O [Etoposide],formation of p53-ARTS complex,p53-ARTS complex,promotes
"CC1(C)CCC(CN2CCN(c3ccc(C(=O)NS(=O)(=O)c4ccc(NCC5CCOCC5)c([N+](=O)[O-])c4)c(Oc4cnc5[nH]ccc5c4)c3)CC2)=C(c2ccc(Cl)cc2)C1 [ABT-199, 4-[4-[[2-(4-Chlorophenyl)-4,4-dimethyl-1-cyclohexen-1-yl]methyl]-1-piperazinyl]-N-[[3-nitro-4-[[(tetrahydro-2H-pyran-4-yl)methyl]amino]phenyl]sulfonyl]-2-(1H-pyrrolo[2,3-b]pyridin-5-yloxy)benzamide, reference compound]",ARTS levels,[2],upregulated
same,ARTS levels,"[3]; 5 μM ABT-199, 24 hrs",upregulated
same,"apoptotic markers, cleaved PARP and cleaved Caspase 3","[3]; 5 μM ABT-199, 24 hrs",upregulated
same,BCL-2 levels,"[3]; 10 μM ABT-199, 24 hrs",upregulated
same,Bcl-2 levels,"[3]; ABT-199 alone, 2, 6 and 24 hrs",upregulated
same,cleaved PARP and cleaved Caspase 3,HL-60 leukemia cell line,upregulated
same,cleaved PARP and cleaved Caspase 3,"[4]; ABT-199, 24 hrs",upregulated
same,cleaved Caspase 3,"[4]; ABT-199 alone, 24 hrs",increased

# Reference: patent publication US20250057813A1, “APOPTOSIS RELATED PROTEIN IN THE TGF-BETA SIGNALING PATHWAY (ARTS) MIMETIC COMPOUNDS, COMPOSITIONS, METHODS AND USES THEREOF IN INDUCTION OF APOPTOSIS” (Carmel-Haifa University Economic Corporation Ltd., priority 2022, published 2025)
